Test results from patent US9624201B2, “Inhibitors of bruton's tyrosine kinase” (Hoffmann-La Roche Inc., priority 2013, dated 2017).

Biological target: Bruton's Tyrosine Kinase (inactivated state) (Homo sapiens (Human), UniProt Q06187)
Assay: Bruton's Tyrosine Kinase (BTK) Inhibition TR-FRET (Time Resolved FRET) competition assay
Assay type: binding
Settings: inactivated state of BTK; Kinase Tracer 178; incubated 18-24 h at 14° C.
Experimental: This BTK competition assay measures compound potency (IC50) for the inactivated state of Bruton's Tyrosine Kinase using FRET (Forster/Flouresence Resonance Energy Transfer) technology. The BTK-Eu complex was incubated on ice one hour prior to use at a starting concentration of 50 nM BTK-Bioease™: 10 nM Eu-streptavidin (Perkin-Elmer Catalog# AD0062). The assay buffer consisted of 20 mM HEPES (pH 7.15), 0.1 mM DTT, 10 mM MgCl2, 0.5 mg/ml BSA with 3% Kinase Stabilizer (Fremont Biosolutions, Catalog # STB-K02). After 1 h, the reaction mixture from above was diluted 10 fold in assay buffer to make 5 nM BTK: 1 nM Eu-Streptavidin complex (donor fluorophore). 18 μl of a mixture of 0.11 nM BTK-Eu and 0.11 nM Kinase Tracer 178 (Invitrogen, Catalog # PV5593,) with BTK-Eu alone as no negative control, was then dispensed into 384-well flat bottom plates (Greiner, 784076). Compounds to be tested in assay were prepared as 10× concentrations and serial dilution in half-log increments was performed in DMSO so as to generate 10 point curves. To initiate the FRET reaction, compounds prepared as 10× stock in DMSO was added to the plates and the plates were incubated 18-24 h at 14° C.
After the incubation the plates were read on a BMG Pherastar Fluorescent plate reader (or equivalent) and used to measure the emission energy from the europium donor fluorophore (620 nm emission) and the FRET (665 nm emission). The negative control well values were averaged to obtain the mean minimum. The positive “no inhibitor” control wells were averaged to obtain the mean maximum. Percent of maximal FRET was calculated using following equation: % max FRET=100×[(FSRcmpd−FSRmean min)/(FSRmean max−FSRmean min)] where FSR=FRET Signal ratio. % Max FRET curves were plotted in Activity Base (Excel) and the IC50(%), hill slope, z′ and % CV were determined. The mean IC50 and standard deviation will be derived from duplicate curves (singlet inhibition curves from two independent dilutions) using Microsoft Excel.

Sequence of Bruton's Tyrosine Kinase (inactivated state) (Q06187 whole entry): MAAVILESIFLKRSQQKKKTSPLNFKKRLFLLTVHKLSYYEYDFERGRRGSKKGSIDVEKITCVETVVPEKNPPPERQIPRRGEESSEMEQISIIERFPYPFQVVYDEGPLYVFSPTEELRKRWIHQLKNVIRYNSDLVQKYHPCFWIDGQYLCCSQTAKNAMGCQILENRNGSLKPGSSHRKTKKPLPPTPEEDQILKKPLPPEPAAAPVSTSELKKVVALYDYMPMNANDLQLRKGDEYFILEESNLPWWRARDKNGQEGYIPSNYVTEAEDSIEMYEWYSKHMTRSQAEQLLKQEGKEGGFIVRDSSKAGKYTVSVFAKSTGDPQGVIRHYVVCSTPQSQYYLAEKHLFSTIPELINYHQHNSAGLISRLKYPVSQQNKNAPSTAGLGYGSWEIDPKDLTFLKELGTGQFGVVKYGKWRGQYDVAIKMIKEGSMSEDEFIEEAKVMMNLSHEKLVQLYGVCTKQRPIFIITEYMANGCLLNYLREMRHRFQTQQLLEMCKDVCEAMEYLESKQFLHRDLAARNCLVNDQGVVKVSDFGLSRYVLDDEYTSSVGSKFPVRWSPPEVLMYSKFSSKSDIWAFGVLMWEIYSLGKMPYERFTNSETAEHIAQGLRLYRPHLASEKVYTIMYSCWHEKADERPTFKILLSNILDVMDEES

IC50 [nM] | Compound
201 | Cc1cc(Oc2cccc(F)c2F)ccc1-n1ncc(C(=O)c2cc3c(-c4cccc(Cl)c4)cccc3[nH]2)c1N [Compound 12, {5-Amino-1-[4-(2,3-difluoro-phenoxy)-2-methyl-phenyl]-1H-pyrazol-4-yl}-[4-(3-chloro-phenyl)-1H-indol-2-yl]-methanone]
93.6 | Cc1cc(Oc2cccc(C#N)c2)ccc1-n1ncc(C(=O)c2cc3c(C(=O)N4CCOCC4)cccc3[nH]2)c1N [Compound 15, 3-(4-{5-Amino-4-[4-(morpholine-4-carbonyl)-1H-indole-2-carbonyl]-pyrazol-1-yl}-3-methyl-phenoxy)-benzonitrile]
6.15 | Cc1cc(Oc2cccc(F)c2F)ccc1-n1ncc(C(=O)c2cc3c(-c4ccccn4)cccc3[nH]2)c1N [Compound 8, {5-Amino-1-[4-(2,3-difluoro-phenoxy)-2-methyl-phenyl]-1H-pyrazol-4-yl}-(4-pyridin-2-yl-1H-indol-2-yl)-methanone]
61.5 | Cc1cc(Oc2cccc(F)c2F)ccc1-n1ncc(C(=O)c2cc3c(Br)cccc3[nH]2)c1N [Compound 1, {5-Amino-1-[4-(2,3-difluoro-phenoxy)-2-methyl-phenyl]-1H-pyrazol-4-yl}-(4-bromo-1H-indol-2-yl)-methanone]
4.21 | Cc1cc(Oc2cccc(F)c2F)ccc1-n1ncc(C(=O)c2cc3c(-c4cn[nH]c4)cccc3[nH]2)c1N [Compound 10, {5-Amino-1-[4-(2,3-difluoro-phenoxy)-2-methyl-phenyl]-1H-pyrazol-4-yl}-[4-(1H-pyrazol-4-yl)-1H-indol-2-yl]-methanone]
59.1 | Cc1cc(Oc2cccc(F)c2F)ccc1-n1ncc(C(=O)c2cc3c(-c4cccc(C#N)c4)cccc3[nH]2)c1N [Compound 11, 3-(2-{5-Amino-1-[4-(2,3-difluoro-phenoxy)-2-methyl-phenyl]-1H-pyrazole-4-carbonyl}-1H-indol-4-yl)-benzonitrile]
214 | Cc1cc(Oc2cccc(F)c2F)ccc1-n1ncc(C(=O)c2cc3c(-c4cccs4)cccc3[nH]2)c1N [Compound 5, {5-Amino-1-[4-(2,3-difluoro-phenoxy)-2-methyl-phenyl]-1H-pyrazol-4-yl}-(4-thiophen-2-yl-1H-indol-2-yl)-methanone]
21.1 | COc1cccc(Cc2cccc3[nH]c(C(=O)c4cnn(-c5ccc(Oc6cccc(C#N)c6)cc5C)c4N)cc23)c1 [Compound 17, 3-(4-{5-Amino-4-[4-(3-methoxy-benzyl)-1H-indole-2-carbonyl]-pyrazol-1-yl}-3-methyl-phenoxy)-benzonitrile]
106 | Cc1cc(Oc2cccc(F)c2F)ccc1-n1ncc(C(=O)c2cc3c(-c4ccsc4)cccc3[nH]2)c1N [Compound 3, {5-Amino-1-[4-(2,3-difluoro-phenoxy)-2-methyl-phenyl]-1H-pyrazol-4-yl}-(4-thiophen-3-yl-1H-indol-2-yl)-methanone]
8.38 | Cc1cc(Oc2cccc(C#N)c2)ccc1-n1ncc(C(=O)c2cc3c(-c4cn[nH]c4)cccc3[nH]2)c1N [Compound 14, 3-(4-{5-Amino-4-[4-(1H-pyrazol-4-yl)-1H-indole-2-carbonyl]-pyrazol-1-yl}-3-methyl-phenoxy)-benzonitrile]
8.45 | Cc1cc(Oc2cccc(C#N)c2)ccc1-n1ncc(C(=O)c2cc3c(CC#N)cccc3[nH]2)c1N [Compound 20, 3-{4-[5-Amino-4-(4-cyanomethyl-1H-indole-2-carbonyl)-pyrazol-1-yl]-3-methyl-phenoxy}-benzonitrile]
85.1 | Cc1cc(Oc2cccc(F)c2F)ccc1-n1ncc(C(=O)c2cc3c(-c4ccccc4)cccc3[nH]2)c1N [Compound 2, {5-Amino-1-[4-(2,3-difluoro-phenoxy)-2-methyl-phenyl]-1H-pyrazol-4-yl}-(4-phenyl-1H-indol-2-yl)-methanone]
20.8 | Cc1cc(Oc2cccc(F)c2F)ccc1-n1ncc(C(=O)c2cc3c(-n4cccn4)cccc3[nH]2)c1N [Compound 4, {5-Amino-1-[4-(2,3-difluoro-phenoxy)-2-methyl-phenyl]-1H-pyrazol-4-yl}-(4-pyrazol-1-yl-1H-indol-2-yl)-methanone]
33.1 | Cc1cc(Oc2cccc(F)c2F)ccc1-n1ncc(C(=O)c2cc3c(Cc4ccccc4)cccc3[nH]2)c1N [Compound 9, {5-Amino-1-[4-(2,3-difluoro-phenoxy)-2-methyl-phenyl]-1H-pyrazol-4-yl}-(4-benzyl-1H-indol-2-yl)-methanone]
39.1 | Cc1cc(Oc2cccc(C#N)c2)ccc1-n1ncc(C(=O)c2cc3c(C(=O)N4CCN(C)CC4)cccc3[nH]2)c1N [Compound 16, 3-(4-{5-Amino-4-[4-(4-methyl-piperazine-1-carbonyl)-1H-indole-2-carbonyl]-pyrazol-1-yl}-3-methyl-phenoxy)-benzonitrile]
29.5 | Cc1cc(Oc2cccc(F)c2F)ccc1-n1ncc(C(=O)c2cc3c(Cc4cccc(C#N)c4)cccc3[nH]2)c1N [Compound 13, 3-(2-{5-Amino-1-[4-(2,3-difluoro-phenoxy)-2-methyl-phenyl]-1H-pyrazole-4-carbonyl}-1H-indol-4-ylmethyl)-benzonitrile]

Compound | IC50 [nM]
Cc1cc(Oc2cccc(F)c2F)ccc1-n1ncc(C(=O)c2cc3c(C(=O)N4CCOCC4)cccc3[nH]2)c1N [Compound 6, {5-Amino-1-[4-(2,3-difluoro-phenoxy)-2-methyl-phenyl]-1H-pyrazol-4-yl}-[4-(morpholine-4-carbonyl)-1H-indol-2-yl]-methanone] | 11.9
{5-Amino-1-[4-(2,3-difluoro-phenoxy)-2-methyl-phenyl]-1H-pyrazol-4-yl}-[4-(1-methyl-1H-pyrazol-4-yl)-1H-indol-2-yl]-methanone [Compound 7] | 65.3
CNC(=O)c1cccc2[nH]c(C(=O)c3cnn(-c4ccc(Oc5cccc(C#N)c5)cc4C)c3N)cc12 [Compound 21, 2-{5-Amino-1-[4-(3-cyano-phenoxy)-2-methyl-phenyl]-1H-pyrazole-4-carbonyl}-1H-indole-4-carboxylic acid methylamide] | 13
